Measured values reported in patent US20220280515A1, “Ophthalmic Composition for Promoting Tear Secretion” (Rohto Pharmaceutical Co., Ltd., priority 2019, published 2022).
Counter-ions that a name gives are not always drawn.

Key:
normal rabbits = experiment: Tear secretion promoting action by single ophthalmic administration, Schirmer's test paper, normal rabbits; type: in vivo, Japanese white rabbits; conditions: 0.05% solution in PBS, 50 μL/eye single instillation, 15 minutes later, Student's t test
Procedure: The tear secretion promoting action of delgocitinib was evaluated using normal rabbits. Delgocitinib was dissolved and stirred in PBS (Kohjin Bio Co., Ltd.) to prepare a 0.05% delgocitinib solution. Male Japanese white rabbits (Oriental Yeast Co., Ltd.) were placed in retention tubes, and the PBS or the 0.05% delgocitinib solution was instilled at a dose of […]. Fifteen minutes later, a Schirmer's test paper was inserted into conjunctival sac on the corner of the eye. One minute later, the test paper was pulled out, and the length of the wet part of the test paper was measured, which was used as a tear volume.

[1] = tested on: lacrimal gland excised rats; experiment: Tear secretion promoting action by single ophthalmic administration, Schirmer's test paper, lacrimal gland excised rats; type: in vivo, Sprague-Dawley (SD) rats; conditions: rats with main and accessory lacrimal glands excised 1 week earlier; 5 μL/eye single instillation (DIQUAS 3%, 3% pilocarpine, 0.05% delgocitinib); 15 minutes later; Mann-whitney U test
Procedure: (§1) The tear secretion promoting action of delgocitinib was evaluated using normal rats and lacrimal gland excision rats.
(§2) As a test substance, a 0.05% delgocitinib solution (delgocitinib as the active ingredient and sodium chloride, potassium chloride, sodium hydroxide, boric acid, and chlorhexidine gluconate as additives were combined, dissolved and stirred in purified water) was prepared. As a control substance, pilocarpine hydrochloride (Tokyo Chemical Industry Co., Ltd.) was dissolved and stirred in saline (OTSUKA NORMAL SALINE, Otsuka Pharmaceutical Factory, Inc.) to prepare a 3% pilocarpine solution.
(§3) Into normal male Sprague-Dawley (SD) rats (Japan SLC, Inc.) and SD rats whose main and accessory lacrimal glands had been excised 1 week earlier, saline, the DIQUAS ophthalmic solution 3% (Santen Pharmaceutical Co., Ltd.), the 3% pilocarpine solution, or the 0.05% delgocitinib solution was instilled at a dose of 5 μL/eye. Ten minutes later, anesthesia was induced using somnopentyl (Kyoritsu Seiyaku Corporation), and another 5 minutes later, a Schirmer's test paper was inserted into conjunctival sac on the corner of the eye. One minute later, the test paper was pulled out, and the length of the wet part of the test paper was measured, and this measured value was used as a tear volume.

[2] = tested on: lacrimal gland excised rats; experiment: Tear volume increasing action by repeated ophthalmic administration, lacrimal gland excised rats (dry eye model); type: in vivo, Sprague-Dawley (SD) rats; conditions: main lacrimal gland excised rats; each concentration (0.0125%, 0.05%, 0.2%), 5 μL/eye four times a day, four weeks; Steel test
Procedure: The tear secretion volume increasing action of delgocitinib was evaluated using lacrimal gland excised rats as a dry eye model. Delgocitinib was dissolved and stirred in PBS (Kohjin Bio Co., Ltd.) to prepare delgocitinib solutions (0.0125%, 0.05%, and 0.2%) at each concentration. Into normal male Sprague-Dawley (SD) rats (Japan SLC, Inc.) and SD rats whose main lacrimal gland had been excised 1 week earlier, the PBS or the delgocitinib solutions at each concentration were repeatedly instilled four times a day at a dose of 5 μL/eye. Four weeks after the start of ophthalmic instillation, the PBS or the delgocitinib solutions at each concentration were instilled at a dose of 5 μL/eye, anesthesia was induced using somnopentyl (Kyoritsu Seiyaku Corporation) 10 minutes later, and another 5 minutes later, a Schirmer's test paper was inserted into conjunctival sac on the corner of the eye. One minute later, the test paper was pulled out, and the length of the wet part of the test paper was measured, and this measured value was used as a tear volume.

[3] = tested on: lacrimal gland excised rats; experiment: Action of ameliorating keratoconjunctival epithelial disorders by repeated ophthalmic administration, fluorescein staining score, lacrimal gland excised rats (dry eye model); type: in vivo, SD rats; conditions: main lacrimal gland excised rats; each concentration (0.0125%, 0.05%, 0.2%), 5 μL/eye four times a day, four weeks; Steel test
Procedure: The action of ameliorating keratoconjunctival epithelial disorders of delgocitinib was evaluated using rats with lacrimal gland excision used as a dry eye model. Fluorescein sodium salt (Sigma-Aldrich Japan) was dissolved in OTSUKA NORMAL SALINE (Otsuka Pharmaceutical Factory, Inc.) to prepare a 10 mg/mL fluorescein staining solution. Delgocitinib was dissolved and stirred in PBS (Kohjin Bio Co., Ltd.) to prepare delgocitinib solutions at each concentration (0.0125%, 0.05%, and 0.2%). Into male SD rats (Japan SLC, Inc.) whose main lacrimal gland had been excised 1 week earlier, the PBS or the delgocitinib solutions at each concentration were repeatedly instilled four times a day at a dose of 5 μL/eye. Four weeks after the start of ophthalmic instillation, the 10 mg/mL fluorescein staining solution was instilled at a dose of 1 μL/eye. After induction of anesthesia with an ISOFLURANE inhalation solution (Pfizer Japan Inc.), a photograph was taken with a fluorescence microscope (Leica Microsystems). The cornea captured in the photograph was divided into four sections, the staining score of each section was scored on a scale of 0 to 5, and the total score of four sections was used as the corneal epithelial disorder score for the eye.

normal rats = experiment: Tear secretion promoting action by single ophthalmic administration, Schirmer's test paper, normal rats; type: in vivo, Sprague-Dawley (SD) rats; conditions: 5 μL/eye single instillation (DIQUAS 3%, 3% pilocarpine, 0.05% delgocitinib), 15 minutes later, Mann-whitney U test
Procedure: as §1, §2, §3

normal mice = experiment: Tear secretion promoting action by single ophthalmic administration, phenol red thread, normal mice; type: in vivo, C57BL/6J mice; conditions: 3 μL/eye single instillation, 15 minutes later
Procedure: The tear secretion promoting action of delgocitinib was evaluated using normal mice. Delgocitinib was dissolved and stirred in PBS (Kohjin Bio Co., Ltd.) to prepare delgocitinib solutions at each concentration (0.0125%, 0.05%, and 0.2%). Female C57BL/6J mice (Japan SLC, Inc.) were retained, and the PBS or the delgocitinib solutions at each concentration were instilled at a dose of 3 μL/eye. Fifteen minutes later, a phenol red thread (ZONE-QUICK, AYUMI Pharmaceutical Corporation) was inserted into conjunctival sac on the corner of the eye. Fifteen seconds later, the phenol red thread was pulled out, the length of the wet part of the phenol red thread was measured, and this measured value was used as the tear volume.

dry eye model of rats = conditions: reported in Non Patent Literature 1; cited from earlier work

Structure (SMILES)	tear volume (length of the wet part of Schirmer's test paper) compared with the PBS group (normal rabbits)	tear volume (length of the wet part of Schirmer's test paper) compared with the saline group [1]	tear volume (length of the wet part of Schirmer's test paper) compared with the PBS group [2]	corneal epithelial disorder score (fluorescein staining, total of four sections each 0 to 5) compared with the PBS group [3]	tear volume (length of the wet part of Schirmer's test paper) compared with the saline group (normal rats)	tear volume (length of the wet part of phenol red thread) compared with the PBS group (normal mice; 0.05% solution, Dunnett's test)	tear volume (length of the wet part of phenol red thread) compared with the PBS group (normal mice; 0.2% solution, Dunnett's test)	tear volume (length of the wet part of phenol red thread) compared with the PBS group (normal mice; each concentration (0.0125%, 0.05%, 0.2%))	corneal epithelial disorders (dry eye model of rats)	secretion of tear (dry eye model of rats)
C[C@H]1CN(C(=O)CC#N)[C@]12CCN(c1ncnc3[nH]ccc13)C2 [delgocitinib, 3-[(3S,4R)-3-methyl-6-(7H-pyrrolo[2,3-d]pyrimidin-4-yl)-1,6-diazaspiro[3.4]octan-1-yl]-3-oxopropanenitrile]	significantly increased	significantly increased	significantly increased	significantly decreased	significantly increased	significant increase	significant increase	increased		
O=c1ccn([C@@H]2O[C@H](COP(=O)(O)OP(=O)(O)OP(=O)(O)OP(=O)(O)OC[C@H]3O[C@@H](n4ccc(=O)[nH]c4=O)[C@H](O)[C@@H]3O)[C@@H](O)[C@H]2O)c(=O)[nH]1 [diquafosol sodium]									ameliorated corneal epithelial disorders	promoted secretion of tear
CC[C@@H]1C(=O)OC[C@@H]1Cc1cncn1C [pilocarpine, pilocarpine hydrochloride]		significantly increased only in the DIQUAS ophthalmic solution 3% group and the 0.05% delgocitinib solution group			significantly increased					
